Results from US20100113415A1, “EPHA4 RTK INHIBITORS FOR TREATMENT OF NEUROLOGICAL AND NEURODEGENERATIVE DISORDERS AND CANCER” (priority 2008, published 2010).

Tested on: Jak2/Stat3 activation with Interferon Gamma in MCF-7 cells
Assay: Cell-based counterscreen assay (IFN-γ activated Jak2/Stat3, pGAS-Luc in MCF-7 cells)
Conditions: for IC50: Homo sapiens, MCF7, inflexion point, read-out: Cell Counter Screen Assay IP
From the text: EphA4 cell-based assay was based on the signaling pathway of EphA4, which involves activation of the tyrosine kinase Jak2 and the transcriptional activator Stat3. However, pharmacological agents could also interfere downstream of EphA4 signaling and particularly on Jak2 activity. To counterscreen this potential effect unrelated to EphA4 activity, a new assay was designed based on direct activation of the tyrosine kinase Jak2 and the transcriptional activator Stat3 with Interferon Gamma (IFN-γ).
MCF-7 cells were maintained in MEM growth media, supplemented with 10% fetal bovine serum, 2 mM L-glutamine, 1.5 g/L sodium bicarbonate, 0.1 mM non-essential amino acids, 1 mM sodium pyruvate, and 0.01 mg/ml bovine insulin. For the luciferase assay MCF-7 cells were co-transfected the next day with 50 μg of pGAS-Luc and 5 μg of empty vector pRL-CMV, which encoded the Renilla luciferase, and was included in the transfection mix for normalization. Six hours after transfection the cells were trypsinized and plated at 4.105 cells/ml into 96 well Black/Clear Poly-D-Lysine coated plates (Biocoat) that had been pre-spotted with compounds. IFN-γ (BD Pharmingen, USA) was then added to the wells. Cells were lysed the next day using the Reporter Lysis Buffer (Promega), and the luciferase activity was measured using the Dual Luciferase Assay (Promega) following the manufacturer's directions. The Firefly and Renilla luminescences are read consecutively on a Top-Count (Perkin-Elmer).
Results are expressed as a ratio of the two luminescence: Firefly Luciferase/Renilla Luciferase. Cell viability was assessed on parallel plates using the Cell Glo Assay (Promega) following the manufacturer's directions. Results are expressed as percent of cell death in comparison with vehicle-treated wells.
Compounds were titrated in duplicate at 10 points concentration starting at 100 μM with a 1.5 fold increment. Concentration-response curves were represented and the concentrations at the inflexion point (IP) were calculated. The maximum effect was given by the maximum percent inhibition calculated from the results of the control wells (containing only DMSO).

Row | Compound | Cell Counter Screen Assay max inhibition in % | IC50
1 | Cc1ccccc1-c1nc2[nH]nc(N)c2c2c1CCC(C)(C)C2 [Example 67] | 81% | 13 µM
2 | CC1CCc2c(-c3ccccc3Cl)nc3[nH]nc(N)c3c2C1 (stereo not shown) [Example 63] | 82% | 20 µM
